From patent US20160102074A1, “SUBSTITUTED AMIDE COMPOUNDS” (PFIZER INC., priority 2014, published 2016)

Tests used:
[1] = tested on: human PCSK9; assay: PCSK9 AlphaLISA assay, PCSK9 lowering in WT7 cells; conditions: WT7 cells (Huh7 stably over-expressing human PCSK9), secreted PCSK9 by AlphaLISA, overnight incubation (16-24 h), top concentration 20 μM; read-out: Cell Based PCSK9 IC50
Excerpt: PCSK9 Lowering in WT7 Cells
An in-vitro AlphaLISA assay (Perkin Elmer) was developed in order to quantitate the level of PCSK9 secreted into the cell culture media following compound treatment. To detect and measure PCSK9 protein a mouse monoclonal anti-human PCSK9 antibody was coupled to AlphaLISA acceptor beads by an external vendor (Perkin Elmer) and a second rabbit monoclonal anti-human PCSK9 antibody with an epitope distinct from that of the acceptor beads was biotinylated using the EZ link NHS-LC-LC-Biotin kit (Life Technologies #21338). Streptavidin coated-donor beads (Perkin Elmer) are also included in the assay mixture which then binds the biotinylated anti-PCSK9 antibody and in the presence of PCSK9 this donor complex and acceptor beads are brought into close proximity. Upon excitation of the donor beads at 680 nm singlet oxygen molecules are released that trigger an energy transfer cascade within the acceptor beads resolving as a single peak of light emitted at 615 nm. The ability of compound to modulate PCSK9 protein levels in conditioned media by AlphaLISA was assessed in the human hepatocellular carcinoma cell line Huh7, stably over-expressing human PCSK9. This cell line, termed WT7, was established by transfecting Huh7 cells with an in-house modified pcDNA 3.1 (+) Zeo expression vector (Life Technologies) containing the full-length human PCSK9 sequence (NCBI reference identifier, NM_174936.3, where coding sequence start annotated at position 363) and a c-terminal V5 and 6×-His tag. Following plasmid transfection the stable WT7 clone was identified and maintained under Zeocin selection. Compound screening was performed in 384-well plates where WT7 cells were plated at a density of 7500 cells per well in 20 μL of tissue culture media containing compound in an eleven point, 0.5 log dilution format at a high treatment concentration of 20 μM in a final volume of 0.5% DMSO. In additional to these test compound conditions each screening plate also included wells that contained 20 μM puromycin as a positive assay control defined as high percent effect, HPE, as well as wells containing media in 0.5% DMSO as a negative treatment control defined as zero percent effect, ZPE. After overnight compound incubation (16-24 h) the tissue culture media was collected and an aliquot from each sample was transferred to individual wells of a 384-well white Optiplate (Perkin Elmer). The coupled antibodies and donor beads were added to the assay plates in a buffer composed of 30 mM Tris pH 7.4, 0.02% Tween-20 and 0.02% Casein. Anti-PCSK9 acceptor beads (final concentration of 10 μg/mL) and anti-PCSK9 biotinylated antibody (final concentration of 3 nM) were added and incubated for 30 minutes at room temperature followed by the addition of the streptavidin donor beads (final concentration 40 μg/mL) for an additional 60 minutes. Additionally a standard curve was generated where AlphaLISA reagents were incubated in wells spiked with recombinant human PCSK9 diluted in tissue culture media from 5000 ng/mL to 0.6 ng/mL. Following incubation with AlphaLISA reagents plates were read on an EnVision (Perkin Elmer) plate reader at an excitation wavelength of […] and emission/detection wavelength of […]. To determine compound IC50 the data for HPEand ZPEcontrol wells were first analyzed and the mean, standard deviation and Z prime calculated for each plate. The test compound data were converted into percent effect, using the ZPE and HPE controls as 0% and 100% activity, respectively. The equation used for converting each well reading into percent effect was:
IC50 was then calculated and reported as the midpoint in the percent effect curve in molar units and the values are reported under the Cell Based PCSK9 IC50 (μM) column header within Table 2 Biological Data. […]

[2] = Human intestinal S9 fraction in vitro stability assay (HInt); format: in vitro ADME; conditions: human intestinal S9 0.1 mg/mL, 1 μM test compound, pH 7.4, 37° C., substrate depletion
Excerpt: In particular, the human intestinal S9 fraction in vitro stability assay (HInt) and human hepatocyte in vitro liver metabolism assay (HHep) provide important information regarding the clearance and metabolic activation of these compounds. The human intestinal S9 fraction in vitro stability assay provides a surrogate measure of compound metabolism as it travels across the gut wall; compounds with low CLint values more likely to enter the portal vein and be exposed to the liver. Likewise, the human hepatocyte in vitro liver metabolism assay provides a surrogate measure of compound metabolism when exposed to liver; compounds with high CLint values are more likely to be metabolically activated. For compounds such as prodrugs that release an active species on metabolic activation, high CLint values in human hepatocytes are desirable. Active compounds released in this way inhibit PCSK9 and show improved atherosclerotic properties by increased exposure of the active metabolite in the liver.
Human Intestinal S9 Fraction In Vitro Stability Assay (Hint)
In vitro stability of test compounds in human intestinal S9 fraction was determined by a substrate depletion approach. Frozen PMSF-free human intestinal S9 (BD Gentest) was thawed on wet ice and diluted to the test concentration of 0.1 mg/mL in 100 mM potassium phosphate buffer pH 7.4. Aliquots of diluted intestinal S9 (495 μL, n=2) were added to tubes in a dry heat bath and pre-warmed for 5 min at 37° C. Test compounds were dissolved in DMSO at 30 mM, ordered from the TekCel at 10 mM, and further diluted to 0.1 mM in DMSO. To initiate the reaction, 5 μL of 0.1 mM DMSO stock solution was added to the pre-warmed intestinal S9. The final test compound concentration in the incubation was 1 μM. At each time point (0.25, 5, 10, 20, 40, and 60 min) a 50 μL sample of incubate was removed and transferred to a plate containing 200 μL acetonitrile with internal standard (2 ng/mL terfenadine). After collection of the final time point, sample plates were capped, vortexed, and centrifuged for 5 minutes at approximately 2000×g. 150 μL of supernatant was removed and transferred to a clean storage plate for direct LC-MS/MS analysis. LC-MS/MS analysis was conducted on a Triple Quad 5500 (AB Sciex) with two LC-20AD pumps and CBM-20 controller (Shimadzu) and CTC PAL autosampler (LEAP Technologies). The MS was operated in multiple reaction monitoring mode with simultaneous monitoring for test compound and internal standard. 5 μL of sample was injected on a Kinetex C18 30×2.1 mm column (Phenomenex) and eluted at 0.5 ml/min under the following conditions, where solvent A was water containing 0.1% formic acid and solvent B was acetonitrile containing 0.1% formic acid: hold initial conditions 90% A and 10% B for 0.8 min, ramp to 30% A and 70% B over 1 min, step to 5% A and 95% B over 0.05 min, hold at 5% A and 95% B for 0.15 min, return to initial conditions over 0.1 min, and hold for 0.4 min. Peak areas of test compound and internal standard were quantitated using Analyst 1.5 (AB Sciex) and the ratios of test compound peak area to internal standard peak area (area ratio) were calculated. The natural log of area ratio was plotted versus time and the portion of the curve representing the initial linear rate of test compound depletion was fit using linear regression (IDBS E-Workbook 9.4). The slope of this line was converted to half-life (t1/2=−LN2/slope). Half-life was used to calculate intrinsic apparent clearance (CLint=LN2/(t1/2*(mg protein/ml incubation))).

Q: Which IC50 [1] does the source give for `CCOC(=O)O[C@@H](C)n1nnnc1-c1c(-c2ccc(C(=O)N(c3ncccc3Cl)[C@@H]3CCCNC3)cc2F)cnn1C` [Example 7, ethyl (S)-1-{5-[4-(4-{(3-chloropyridin-2-yl)[(3R)-piperidin-3-yl]carbamoyl}-2-fluorophenyl)-1-methyl-1H-pyrazol-5-yl]-1H-tetrazol-1-yl}ethyl carbonate] here?
A: > 20 µM

Q: What about the microsomal CLint at 1 μM [2] of the same compound?
A: < 82.9 µL/min/mg

Q: With `CCOC(=O)O[C@H](C)n1nnnc1-c1c(-c2ccc(C(=O)N(c3ncccc3Cl)[C@@H]3CCCNC3)cc2F)cnn1C` [Example 11, ethyl (R)-1-{5-[4-(4-{(3-chloropyridin-2-yl)[(3R)-piperidin-3-yl]carbamoyl}-2-fluorophenyl)-1-methyl-1H-pyrazol-5-yl]-1H-tetrazol-1-yl}ethyl carbonate] as the compound, how does the IC50 [1] read?
A: 16.1 µM

Q: What about the microsomal CLint at 1 μM [2] of the same compound?
A: 620 µL/min/mg

Q: For `CCOC(=O)O[C@@H](C)n1nnnc1-c1c(-c2ccc(C(=O)N(c3ncccc3C)[C@@H]3CCCNC3)cc2)cnn1C` [Example 5a, ethyl (S)-1-{5-[1-methyl-4-(4-{(3-methylpyridin-2-yl)[(3R)-piperidin-3-yl]carbamoyl}phenyl)-1H-pyrazol-5-yl]-1H-tetrazol-1-yl}ethyl carbonate], which IC50 [1] is on record?
A: > 20 µM

Q: And the microsomal CLint at 1 μM [2]?
A: < 57.8 µL/min/mg

Q: What does the source list for `CCOC(=O)O[C@H](C)n1nnnc1-c1c(-c2ccc(C(=O)N(c3ncccc3C)[C@@H]3CCCNC3)cc2)cnn1C` [Example 5b, ethyl (R)-1-{5-[1-methyl-4-(4-{(3-methylpyridin-2-yl)[(3R)-piperidin-3-yl]carbamoyl}phenyl)-1H-pyrazol-5-yl]-1H-tetrazol-1-yl}ethyl carbonate]?
A: IC50 [1]: > 20 µM; microsomal CLint at 1 μM [2]: 86.9 µL/min/mg

Q: Which results are given for `CCOC(=O)O[C@@H](C)n1nnnc1-c1c(-c2ccc(C(=O)N(c3ncccc3C)[C@@H]3CCCNC3)cc2F)cnn1C` [Example 8, ethyl (S)-1-{5-[4-(4-{(3-methylpyridin-2-yl)[(3R)-piperidin-3-yl]carbamoyl}-2-fluorophenyl)-1-methyl-1H-pyrazol-5-yl]-1H-tetrazol-1-yl}ethyl carbonate]?
A: IC50 [1]: > 20 µM; microsomal CLint at 1 μM [2]: 116 µL/min/mg

Q: Which results are given for `CCOC(=O)O[C@@H](C)n1nnnc1-c1c(-c2ccc(C(=O)N(c3ncccc3C)[C@@H]3CCCNC3)nc2)cnn1C` [Example 9, ethyl (S)-1-{5-[1-methyl-4-(6-{(3-methylpyridin-2-yl)[(3R)-piperidin-3-yl]carbamoyl}pyridin-3-yl)-1H-pyrazol-5-yl]-1H-tetrazol-1-yl}ethyl carbonate]?
A: IC50 [1]: > 20 µM; microsomal CLint at 1 μM [2]: < 57.8 µL/min/mg

Q: Which IC50 [1] does the source give for `CCOC(=O)O[C@@H](C)n1nnnc1-c1c(-c2ccc(C(=O)N(c3ncccc3Cl)[C@@H]3CCCNC3)cc2)cnn1C` [Example 6, ethyl (S)-1-{5-[1-methyl-4-(4-{(3-chloropyridin-2-yl)[(3R)-piperidin-3-yl]carbamoyl}phenyl)-1H-pyrazol-5-yl]-1H-tetrazol-1-yl}ethyl carbonate] here?
A: > 20 µM

Q: What about the microsomal CLint at 1 μM [2] of the same compound?
A: < 57.8 µL/min/mg

Q: What does the source list for `CCOC(=O)O[C@@H](C)n1nnnc1-c1c(-c2ccc(C(=O)N(c3ncccc3Cl)[C@@H]3CCCNC3)nc2)cnn1C` [Example 10, ethyl (S)-1-{5-[4-(6-{(3-chloropyridin-2-yl)[(3R)-piperidin-3-yl]carbamoyl}pyridin-3-yl)-1-methyl-1H-pyrazol-5-yl]-1H-tetrazol-1-yl}ethyl carbonate]?
A: IC50 [1]: > 20 µM; microsomal CLint at 1 μM [2]: < 57.8 µL/min/mg

Q: For `Cn1ncc(-c2ccc(C(=O)N(c3ncccc3Cl)[C@@H]3CCCNC3)cc2F)c1-c1nn[nH]n1` [Example 3, N-(3-chloropyridin-2-yl)-3-fluoro-4-[1-methyl-5-(2H-tetrazol-5-yl)-1H-pyrazol-4-yl]-N-[(3R)-piperidin-3-yl]benzamide], which IC50 [1] is on record?
A: > 20 µM
